In ChEMBL document CHEMBL3885861, “Open TG-GATES”:

Species on record: Rattus norvegicus
Test: Open TG-GATES - Regimen: Single
Type: toxicity, organism-based, Sprague-Dawley
Set-up: regimen Single, gender Male, age 6 weeks
Details: in vivo, po, 5 mg/kg, route gavage, dose level Low; for APTT / Bas / Eos / Fbg / Hb / Ht / Lym / MCH / MCHC / MCV / Mono / Neu / PT / Plat / RBC / Ret / WBC: tissue Blood; for KIDNEY_L / KIDNEY_R / KIDNEY_TOTAL: tissue Kidney; for LIVER: tissue Liver; for A/G / ALP / ALT / AST / BUN / CRE / Ca / Cl / DBIL / GLC / IP / K / LDH / Na / PL / RALB / TBIL / TC / TG / TP / gamma-GTP: tissue Plasma

CC(=N)S [THIOACETAMIDE]
TERMINAL_BW (3 h): 189.9 g | APTT (3 h): 17.2 s | Bas (3 h): 0% | Eos (3 h): 0.6% | Fbg (3 h): 225 mg/dL | Hb (3 h): 13.1 g/dL | Ht (3 h): 39.7% | Lym (3 h): 81.4% | MCH (3 h): 21.3 pg | MCHC (3 h): 32.9% | MCV (3 h): 64.6 fL | Mono (3 h): 6.4% | Neu (3 h): 11.4% | PT (3 h): 12.1 s | Plat (3 h): 105.8 x10_4/uL | RBC (3 h): 614.6 x10_4/ul | Ret (3 h): 9.2% | WBC (3 h): 119.1 x10_2/uL | KIDNEY_L (3 h): 0.9 g | KIDNEY_R (3 h): 0.9 g | KIDNEY_TOTAL (3 h): 1.7 g | LIVER (3 h): 8.7 g | A/G (3 h): 2.1 | ALP (3 h): 842.8 IU/L | ALT (3 h): 31.2 IU/L | AST (3 h): 64 IU/L | BUN (3 h): 12.2 mg/dL | CRE (3 h): 0.5 mg/dL | Ca (3 h): 10.9 mg/dL | Cl (3 h): 103.4 meq/L | DBIL (3 h): 0 mg/dL | GLC (3 h): 179.8 mg/dL | IP (3 h): 9.2 mg/dL | K (3 h): 4.4 meq/L | LDH (3 h): 97.6 IU/L | Na (3 h): 138.2 meq/L | PL (3 h): 149.6 mg/dL | RALB (3 h): 3.8 g/dL | TBIL (3 h): 0.3 mg/dL | TC (3 h): 85.8 mg/dL | TG (3 h): 70.6 mg/dL | TP (3 h): 5.6 g/dL | gamma-GTP (3 h): 2 IU/L | TERMINAL_BW (6 h): 185.4 g | APTT (6 h): 17.8 s | Bas (6 h): 0% | Eos (6 h): 1% | Fbg (6 h): 237.8 mg/dL | Hb (6 h): 13.2 g/dL | Ht (6 h): 40.2% | Lym (6 h): 70.4% | MCH (6 h): 21.2 pg | MCHC (6 h): 32.9% | MCV (6 h): 64.4 fL | Mono (6 h): 9.4% | Neu (6 h): 19% | PT (6 h): 12.4 s | Plat (6 h): 113.6 x10_4/uL | RBC (6 h): 625.4 x10_4/ul | Ret (6 h): 9.1% | WBC (6 h): 94.9 x10_2/uL | KIDNEY_L (6 h): 0.9 g | KIDNEY_R (6 h): 0.9 g | KIDNEY_TOTAL (6 h): 1.8 g | LIVER (6 h): 8.2 g | A/G (6 h): 2.2 | ALP (6 h): 729.4 IU/L | ALT (6 h): 29.8 IU/L | AST (6 h): 62.4 IU/L | BUN (6 h): 10.2 mg/dL | CRE (6 h): 0.6 mg/dL | Ca (6 h): 10.4 mg/dL | Cl (6 h): 104.4 meq/L | DBIL (6 h): 0.002 mg/dL | GLC (6 h): 179.6 mg/dL | IP (6 h): 9 mg/dL | K (6 h): 4.9 meq/L | LDH (6 h): 76 IU/L | Na (6 h): 137.2 meq/L | PL (6 h): 132.2 mg/dL | RALB (6 h): 3.8 g/dL | TBIL (6 h): 0.4 mg/dL | TC (6 h): 80.2 mg/dL | TG (6 h): 41.4 mg/dL | TP (6 h): 5.6 g/dL | gamma-GTP (6 h): 1.2 IU/L | TERMINAL_BW (9 h): 186.4 g | APTT (9 h): 16.8 s | Bas (9 h): 0% | Eos (9 h): 0.6% | Fbg (9 h): 216.2 mg/dL | Hb (9 h): 12.8 g/dL | Ht (9 h): 39.3% | Lym (9 h): 79.2% | MCH (9 h): 21.2 pg | MCHC (9 h): 32.5% | MCV (9 h): 65.1 fL | Mono (9 h): 6.2% | Neu (9 h): 13.8% | PT (9 h): 12.3 s | Plat (9 h): 102.7 x10_4/uL | RBC (9 h): 606 x10_4/ul | Ret (9 h): 9.4% | WBC (9 h): 94.1 x10_2/uL | KIDNEY_L (9 h): 0.9 g | KIDNEY_R (9 h): 0.9 g | KIDNEY_TOTAL (9 h): 1.7 g | LIVER (9 h): 7.8 g | A/G (9 h): 2.3 | ALP (9 h): 794.4 IU/L | ALT (9 h): 32 IU/L | AST (9 h): 61.6 IU/L | BUN (9 h): 11.6 mg/dL | CRE (9 h): 0.5 mg/dL | Ca (9 h): 10.3 mg/dL | Cl (9 h): 103.8 meq/L | DBIL (9 h): 0.01 mg/dL | GLC (9 h): 180 mg/dL | IP (9 h): 9.8 mg/dL | K (9 h): 4.4 meq/L | LDH (9 h): 78.4 IU/L | Na (9 h): 137.4 meq/L | PL (9 h): 138.6 mg/dL | RALB (9 h): 3.8 g/dL | TBIL (9 h): 0.4 mg/dL | TC (9 h): 84.4 mg/dL | TG (9 h): 35.4 mg/dL | TP (9 h): 5.5 g/dL | gamma-GTP (9 h): 1.6 IU/L | TERMINAL_BW (24 h): 198.9 g | APTT (24 h): 16.7 s | Bas (24 h): 0% | Eos (24 h): 0.8% | Fbg (24 h): 219.6 mg/dL | Hb (24 h): 13.3 g/dL | Ht (24 h): 40.1% | Lym (24 h): 78.6% | MCH (24 h): 22 pg | MCHC (24 h): 33.2% | MCV (24 h): 66.3 fL | Mono (24 h): 9.4% | Neu (24 h): 11.4% | PT (24 h): 12.3 s | Plat (24 h): 102.8 x10_4/uL | RBC (24 h): 606.4 x10_4/ul | Ret (24 h): 8.7% | WBC (24 h): 127.7 x10_2/uL | KIDNEY_L (24 h): 0.9 g | KIDNEY_R (24 h): 0.9 g | KIDNEY_TOTAL (24 h): 1.8 g | LIVER (24 h): 9.7 g | A/G (24 h): 2.1 | ALP (24 h): 891 IU/L | ALT (24 h): 38.8 IU/L | AST (24 h): 68.6 IU/L | BUN (24 h): 17 mg/dL | CRE (24 h): 0.5 mg/dL | Ca (24 h): 10.6 mg/dL | Cl (24 h): 103.8 meq/L | DBIL (24 h): 0.01 mg/dL | GLC (24 h): 179.6 mg/dL | IP (24 h): 7.6 mg/dL | K (24 h): 5.3 meq/L | LDH (24 h): 84.2 IU/L | Na (24 h): 136.6 meq/L | PL (24 h): 157.6 mg/dL | RALB (24 h): 3.9 g/dL | TBIL (24 h): 0.3 mg/dL | TC (24 h): 85.6 mg/dL | TG (24 h): 110.8 mg/dL | TP (24 h): 5.8 g/dL | gamma-GTP (24 h): 1.6 IU/L
